According to patent publication US8148388B2, “2,4 (4,6) pyrimidine derivatives” (Janssen Pharmaceutica, N.V., priority 2004, dated 2012):
Like-named read-outs stand apart in the source and are kept apart here.

Tests used:
EGFR-kinase domain = target: T1, EGFR-kinase domain (Homo sapiens, UniProt P00533); assay: In vitro inhibition of EGFR (Flash Plate assay); type: biochemical; conditions: full dose response 1.10^−6M to 1.10^−10M, read-out: C12 EGFR flash Score
T1 construct: 0.5 μg EGFR-kinase domain/well
T1 sequence (P00533 712-979 limits assumed): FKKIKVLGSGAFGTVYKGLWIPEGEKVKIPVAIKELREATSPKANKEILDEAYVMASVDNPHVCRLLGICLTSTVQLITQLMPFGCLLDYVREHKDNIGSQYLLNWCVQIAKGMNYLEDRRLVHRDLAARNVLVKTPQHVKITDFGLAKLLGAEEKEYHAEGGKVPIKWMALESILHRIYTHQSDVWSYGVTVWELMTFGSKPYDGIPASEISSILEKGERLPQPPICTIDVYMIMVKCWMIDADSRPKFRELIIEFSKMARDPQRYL
Procedure: The in vitro inhibition of EGFR was assessed using either the Flash Plate technology or the glass-fiber filter technology as described by Davies, S. P. et al., Biochem J. (2000), 351; p. 95-105. The Flash Plate technology is generally described by B. A. Brown et al. in High Throughput Screening (1997), p. 317-328. Editor(s): Devlin, John P. Publisher: Dekker, New York, N.Y.
In the Flash Plate EGFR kinase reaction assay, a kinase substrate consisting of biotinylated poly(L-glutamic acid-L-tyrosine) (poly(GT)biotin), is incubated with the aforementioned protein in the presence of (^33P) radiolabeled ATP. (^33P) phosphorylation of the substrate is subsequently measured as light energy emitted using a streptavidin-coated Flash Plate (PerkinElmer Life Sciences) by trapping and quantifying the binding of the biotin tagged and radiolabeled substrate.
The EGFR kinase reaction is performed at 30° C. for 60 minutes in a 96-well microtiter FlashPlate (PerkinElmer Life Sciences). For each of the tested compounds a full dose response 1.10^−6M to 1.10^−10M has been performed. IRESSA® and Tarceva™ (erlotinib) were used as reference compounds. The 100 μl reaction volume contains 54.5 mM TrisHCl pH 8.0, 10 mM MgCl2, 100 μM Na3VO4, 5.0 μM unlabeled ATP, 1 mM DTT, 0.009% BSA, 0.8 μCi AT^33P, 0.35 μg/well poly(GT)biotin and 0.5 μg EGFR-kinase domain/well.
The reaction is stopped by aspirating the reaction mixture and washing the plate 3× with 200 μl wash/stop buffer (PBS+100 mM EDTA). After the final wash step 200 μl of wash/stop buffer was added to each well and the amount of phosphorylated (^33P) Poly(GT)biotin determined by counting (30 sec/well) in a microtiterplate scintillation counter.

ErbB2 (h) = ErbB2 (h) (Homo sapiens, UniProt P04626); assay: ErbB2 human kinase assay (filter); type: biochemical; conditions: read-out: C13 ERBB 2 Filter Score
Sequence of ErbB2 (h) (P04626 23-1255): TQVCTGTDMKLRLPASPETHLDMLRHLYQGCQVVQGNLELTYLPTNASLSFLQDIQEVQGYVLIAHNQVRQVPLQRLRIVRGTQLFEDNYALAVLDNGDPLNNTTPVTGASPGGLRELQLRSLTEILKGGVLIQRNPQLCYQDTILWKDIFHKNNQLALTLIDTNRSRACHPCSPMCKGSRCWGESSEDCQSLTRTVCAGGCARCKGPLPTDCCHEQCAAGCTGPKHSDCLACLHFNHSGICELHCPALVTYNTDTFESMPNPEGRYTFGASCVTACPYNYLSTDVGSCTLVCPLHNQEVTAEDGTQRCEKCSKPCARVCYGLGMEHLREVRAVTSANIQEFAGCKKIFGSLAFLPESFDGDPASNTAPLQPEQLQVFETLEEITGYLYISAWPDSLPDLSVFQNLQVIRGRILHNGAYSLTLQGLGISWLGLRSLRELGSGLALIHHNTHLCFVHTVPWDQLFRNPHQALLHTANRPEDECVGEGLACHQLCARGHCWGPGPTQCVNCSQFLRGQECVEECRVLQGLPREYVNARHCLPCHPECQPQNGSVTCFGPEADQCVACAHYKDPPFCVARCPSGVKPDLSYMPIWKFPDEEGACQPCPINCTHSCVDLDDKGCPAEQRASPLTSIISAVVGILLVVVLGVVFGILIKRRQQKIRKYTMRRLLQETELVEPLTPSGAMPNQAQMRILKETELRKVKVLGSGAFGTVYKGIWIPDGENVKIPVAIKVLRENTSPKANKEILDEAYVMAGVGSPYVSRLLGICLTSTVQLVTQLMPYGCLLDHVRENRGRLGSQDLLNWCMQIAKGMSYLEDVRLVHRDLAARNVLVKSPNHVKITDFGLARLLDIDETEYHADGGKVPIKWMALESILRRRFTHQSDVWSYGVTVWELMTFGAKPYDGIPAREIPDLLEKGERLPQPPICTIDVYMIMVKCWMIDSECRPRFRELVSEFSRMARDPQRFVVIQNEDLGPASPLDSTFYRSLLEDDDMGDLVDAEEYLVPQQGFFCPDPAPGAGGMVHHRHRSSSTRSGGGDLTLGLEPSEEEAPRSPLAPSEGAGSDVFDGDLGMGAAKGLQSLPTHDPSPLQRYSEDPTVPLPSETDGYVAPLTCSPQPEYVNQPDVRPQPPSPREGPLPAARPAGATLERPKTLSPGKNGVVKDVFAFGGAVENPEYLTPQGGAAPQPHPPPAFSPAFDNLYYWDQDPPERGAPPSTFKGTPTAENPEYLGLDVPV
Procedure: (§1) Similarly to the above the in vitro inhibition of two other kinases, i.e. human ErbB2 and human ErbB4 was tested for some of the compounds according to the invention.
(§2) In a final reaction volume of 25 μl, ErbB2 (h) (5-10 mU) is incubated with 8 mM MOPS pH 7.0, 0.2 mM EDTA, 10 mM MnCl2, 0.1 mg/ml poly(Glu, Tyr) 4:1, 10 mM MgAcetate and [γ-33P-ATP] (specific activity approx. 500 cpm/pmol, concentration as required). The reaction is initiated by the addition of the MgATP mix. After incubation for 40 minutes at room temperature, the reaction is stopped by the addition of 5 μl of a 3% phosphoric acid solution. 10 μl of the reaction is then spotted onto a Filtermat A and washed three times for 5 minutes in 75 mM phosphoric acid and once in methanol prior to drying and scintillation counting.

Abl (h) = Abl (h) (Homo sapiens, UniProt P00519); assay: Abl human kinase assay (glass-fiber filter); type: biochemical; conditions: test concentration of 10^−6M; read-out: C1 score (inhibition of Abl human)
cSRC (h) = cSRC (h) (Homo sapiens, UniProt P12931); assay: cSRC human kinase assay (glass-fiber filter); type: biochemical; conditions: test concentration of 10^−6M; read-out: C3 score (inhibition of cSRC human)
In short: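 Radiometric assay: kinase and substrate are incubated with [33P]ATP, with the reaction started by MgATP mix. The reaction is spotted on P30 filtermat, washed in 75 mM phosphoric acid and methanol, and the bound 33P is measured by scintillation counting.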

Fes (h) = Fes (h) (Homo sapiens, UniProt P07332); assay: Fes human kinase assay (glass-fiber filter); type: biochemical; conditions: test concentration of 10^−6M; read-out: C4 score (inhibition of Fes human)
In short: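 Human Fes (5–10 mU) was incubated with 0.1 mg/ml poly(Glu,Tyr) 4:1 in 8 mM MOPS pH 7.0, 0.2 mM EDTA, 10 mM Mg acetate and [γ-33P]ATP for 40 min at room temperature. The reaction was stopped with phosphoric acid, and substrate phosphorylation was quantified by filter binding and scintillation counting.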

Flt3 (h) = Flt3 (h) (Homo sapiens, UniProt P36888); assay: Flt3 human kinase assay (glass-fiber filter); type: biochemical; conditions: test concentration of 10^−6M; read-out: C6 score (inhibition of Flt3 human)
Sequence of Flt3 (h) (P36888 27-993): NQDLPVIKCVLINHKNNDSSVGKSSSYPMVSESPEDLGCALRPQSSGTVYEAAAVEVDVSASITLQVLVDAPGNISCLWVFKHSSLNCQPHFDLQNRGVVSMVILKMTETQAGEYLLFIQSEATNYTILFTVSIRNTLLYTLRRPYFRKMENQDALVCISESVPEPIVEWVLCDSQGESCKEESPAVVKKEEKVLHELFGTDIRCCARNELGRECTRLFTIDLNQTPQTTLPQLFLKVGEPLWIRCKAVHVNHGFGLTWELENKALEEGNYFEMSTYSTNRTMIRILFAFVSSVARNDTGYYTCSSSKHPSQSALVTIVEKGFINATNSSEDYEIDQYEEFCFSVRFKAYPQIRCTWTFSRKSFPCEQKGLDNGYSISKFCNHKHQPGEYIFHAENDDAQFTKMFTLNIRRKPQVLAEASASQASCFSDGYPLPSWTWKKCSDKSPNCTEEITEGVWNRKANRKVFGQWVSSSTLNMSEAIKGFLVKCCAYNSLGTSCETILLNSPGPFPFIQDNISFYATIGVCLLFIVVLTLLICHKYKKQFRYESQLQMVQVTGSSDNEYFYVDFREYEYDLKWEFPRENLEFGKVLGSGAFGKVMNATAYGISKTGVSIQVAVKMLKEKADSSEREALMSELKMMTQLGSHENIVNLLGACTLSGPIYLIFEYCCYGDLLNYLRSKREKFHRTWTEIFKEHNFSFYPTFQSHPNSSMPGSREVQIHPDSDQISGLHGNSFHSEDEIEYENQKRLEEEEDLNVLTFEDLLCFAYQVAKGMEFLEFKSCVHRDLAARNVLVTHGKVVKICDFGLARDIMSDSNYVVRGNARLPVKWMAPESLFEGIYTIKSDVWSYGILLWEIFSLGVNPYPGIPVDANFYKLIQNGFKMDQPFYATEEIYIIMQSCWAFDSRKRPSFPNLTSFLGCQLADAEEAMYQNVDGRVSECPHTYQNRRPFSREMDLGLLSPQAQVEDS
In short: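 Human Flt3 (5-10 mU) with 50 μM peptide substrate in 8 mM MOPS pH 7.0, 0.2 mM EDTA, 10 mM Mg acetate and [γ-33P]ATP (concentration as required), 40 min at room temperature. Reaction stopped with phosphoric acid; substrate 33P incorporation counted on P30 glass-fiber filter.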

Fms (h) = Fms (h) (Homo sapiens, UniProt P07333); assay: Fms human kinase assay (glass-fiber filter); type: biochemical; conditions: test concentration of 10^−6M; read-out: C7 score (inhibition of Fms human)
In short: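 Radiometric filter-binding assay: Fms (5-10 mU) with 250 μM peptide substrate and [γ-33P]ATP in 8 mM MOPS pH 7.0, 10 mM Mg acetate, 40 min at room temperature. Reaction stopped with phosphoric acid; substrate-bound 33P counted on P30 filtermat.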

Lck (h) = Lck (h) (Homo sapiens, UniProt P06239); assay: Lck human kinase assay (glass-fiber filter); type: biochemical; conditions: test concentration of 10^−6M; read-out: C9 score (inhibition of Lck human)
Sequence of Lck (h) (P06239 whole entry): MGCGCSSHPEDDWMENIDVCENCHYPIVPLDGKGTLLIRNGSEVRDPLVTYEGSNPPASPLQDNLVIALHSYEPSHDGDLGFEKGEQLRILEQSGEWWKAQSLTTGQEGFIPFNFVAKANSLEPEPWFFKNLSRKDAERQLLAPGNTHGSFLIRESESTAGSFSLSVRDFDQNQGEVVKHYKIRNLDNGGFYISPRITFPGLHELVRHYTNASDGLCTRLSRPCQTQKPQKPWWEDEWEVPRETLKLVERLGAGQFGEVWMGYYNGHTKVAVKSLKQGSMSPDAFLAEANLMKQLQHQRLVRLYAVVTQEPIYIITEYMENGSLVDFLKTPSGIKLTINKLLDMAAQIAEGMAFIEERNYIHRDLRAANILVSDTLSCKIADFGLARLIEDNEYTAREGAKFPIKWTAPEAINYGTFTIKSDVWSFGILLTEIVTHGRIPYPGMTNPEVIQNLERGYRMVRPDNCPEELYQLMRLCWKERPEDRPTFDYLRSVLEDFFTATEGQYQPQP
In short: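 Kinase activity measured as transfer of (^33P) from radiolabeled MgATP to substrate, captured on P30 glass-fiber filtermat, washed in 75 mM phosphoric acid and methanol, then scintillation counted.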

Lyn (h) = Lyn (h) (Homo sapiens, UniProt P07948); assay: Lyn human kinase assay (glass-fiber filter); type: biochemical; conditions: test concentration of 10^−6M; read-out: C10 score (inhibition of Lyn human)
In short: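 Human Lyn (5-10 mU) phosphorylating poly(Glu,Tyr) 4:1 at 0.1 mg/ml with [γ-33P]ATP (concentration as required) in 50 mM Tris pH 7.5, 10 mM Mg acetate, 40 min at room temperature. Stopped with phosphoric acid; substrate-bound radioactivity counted on glass-fibre filter.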

Yes (h) = Yes (h) (Homo sapiens, UniProt P07947); assay: Yes human kinase assay (glass-fiber filter); type: biochemical; conditions: test concentration of 10^−6M; read-out: C11 score (inhibition of Yes human)
Sequence of Yes (h) (P07947 whole entry): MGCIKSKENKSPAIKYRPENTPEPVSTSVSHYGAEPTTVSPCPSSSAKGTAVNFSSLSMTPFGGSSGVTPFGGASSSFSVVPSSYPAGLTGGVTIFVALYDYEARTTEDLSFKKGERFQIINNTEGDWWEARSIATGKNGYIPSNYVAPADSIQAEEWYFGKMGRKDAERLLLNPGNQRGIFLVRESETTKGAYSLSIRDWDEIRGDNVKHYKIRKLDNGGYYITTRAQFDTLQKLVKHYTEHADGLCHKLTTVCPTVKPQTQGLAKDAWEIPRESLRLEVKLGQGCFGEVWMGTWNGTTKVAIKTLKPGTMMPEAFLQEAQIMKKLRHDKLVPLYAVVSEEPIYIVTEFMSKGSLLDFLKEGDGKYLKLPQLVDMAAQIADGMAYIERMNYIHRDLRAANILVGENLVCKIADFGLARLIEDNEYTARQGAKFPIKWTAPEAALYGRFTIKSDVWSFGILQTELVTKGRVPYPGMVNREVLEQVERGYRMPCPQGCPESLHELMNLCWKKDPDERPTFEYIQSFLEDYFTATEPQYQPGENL
In short: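 Yes (h) (5-10 mU) with 0.1 mg/ml poly(Glu, Tyr) 4:1 in 8 mM MOPS pH 7.0, 0.2 mM EDTA, 10 mM MgAcetate and [γ-^33P-ATP], 40 minutes at room temperature. Stopped with phosphoric acid; substrate-bound ^33P counted on glass-fiber filter by scintillation.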

ErbB4 (h) = ErbB4 (h) (Homo sapiens, UniProt Q15303); assay: ErbB4 human kinase assay (filter); type: biochemical; conditions: read-out: C14 ERBB 4 Filter Score
Sequence of ErbB4 (h) (Q15303 26-1308): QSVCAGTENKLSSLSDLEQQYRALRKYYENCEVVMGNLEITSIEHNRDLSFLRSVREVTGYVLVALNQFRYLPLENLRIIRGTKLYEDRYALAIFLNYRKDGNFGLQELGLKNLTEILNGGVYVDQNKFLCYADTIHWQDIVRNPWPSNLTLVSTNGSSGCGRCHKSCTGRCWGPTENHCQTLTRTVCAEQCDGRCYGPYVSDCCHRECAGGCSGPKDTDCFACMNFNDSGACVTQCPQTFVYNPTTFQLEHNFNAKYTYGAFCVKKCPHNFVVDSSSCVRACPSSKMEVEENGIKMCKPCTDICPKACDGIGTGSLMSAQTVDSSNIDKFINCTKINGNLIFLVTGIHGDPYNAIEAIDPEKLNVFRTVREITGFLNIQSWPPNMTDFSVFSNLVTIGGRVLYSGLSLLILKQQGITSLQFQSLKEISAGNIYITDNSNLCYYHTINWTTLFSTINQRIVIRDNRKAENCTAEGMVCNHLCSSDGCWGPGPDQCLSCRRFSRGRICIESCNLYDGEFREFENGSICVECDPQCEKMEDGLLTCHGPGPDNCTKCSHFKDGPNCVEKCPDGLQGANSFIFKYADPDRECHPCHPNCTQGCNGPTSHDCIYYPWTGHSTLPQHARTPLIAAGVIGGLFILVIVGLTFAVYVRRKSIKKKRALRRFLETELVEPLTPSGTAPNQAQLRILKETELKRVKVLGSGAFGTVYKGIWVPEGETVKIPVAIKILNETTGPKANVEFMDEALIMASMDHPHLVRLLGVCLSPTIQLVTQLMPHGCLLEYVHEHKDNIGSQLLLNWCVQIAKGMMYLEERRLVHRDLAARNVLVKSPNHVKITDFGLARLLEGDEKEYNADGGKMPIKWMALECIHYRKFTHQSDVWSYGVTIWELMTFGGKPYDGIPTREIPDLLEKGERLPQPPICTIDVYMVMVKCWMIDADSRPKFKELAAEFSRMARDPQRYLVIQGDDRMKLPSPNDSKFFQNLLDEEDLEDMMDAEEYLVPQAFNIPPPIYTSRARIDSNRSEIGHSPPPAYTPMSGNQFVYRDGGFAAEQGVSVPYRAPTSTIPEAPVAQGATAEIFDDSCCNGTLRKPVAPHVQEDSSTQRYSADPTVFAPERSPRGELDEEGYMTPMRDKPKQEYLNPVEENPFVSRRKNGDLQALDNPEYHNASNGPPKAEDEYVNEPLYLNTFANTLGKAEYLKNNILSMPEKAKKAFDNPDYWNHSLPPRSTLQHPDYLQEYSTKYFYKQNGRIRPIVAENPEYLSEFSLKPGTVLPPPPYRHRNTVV
Procedure: as §1
as §2, with “ErbB4” for “ErbB2”

COCCOc1ccc2cc1OCCCCCN(C)Cc1cc(F)c(Cl)cc1Nc1cc(ncn1)N2
ring closure, yield of all isomers (from COCCOc1ccc(Nc2cc(Nc3cc(Cl)c(F)cc3CN(C)CCCCCO)ncn2)cc1O, ether bond, 1,1'-(azodicarbonyl)dipiperidine (ADDP)/tributylphosphine, THF, 28.6 mM, 25.0 °C, 64.0 h): 44%

COc1ccc2cc1OCCNC(=O)C(Cc1ccccc1)NCc1cccc(c1)Nc1cc(ncn1)N2 (centres unmarked)
ring closure, yield of all isomers (from COc1ccc(Nc2cc(Nc3cccc(CNC(Cc4ccccc4)C(=O)O)c3)ncn2)cc1OCCN, amide bond, HBTU, DMF, 3.85 mM, 1.0 h): 14%

COc1ccc2cc1OCCNC(=O)C1CN(CCO1)C(=O)CN(C)Cc1cccc(c1)Nc1cc(ncn1)N2 (racemic) [Compound 158]
IC50 (EGFR-kinase domain): < 1000 nM | IC50 (ErbB2 (h)): 1000 to 10000 nM

O=C1COc2cccc(c2)Nc2nccc(n2)Nc2cccc(c2)OCCCCN1 [Compound 4, 14,22-dioxa-2,4,8,19,29-pentaazatetracyclo[21.3.1.1˜3,7˜.1˜9,13˜]nonacosa-1(27),3,5,7(29),9,11,13(28),23,25-nonaen-20-one]
ring closure, yield of all isomers (from NCCCCOc1cccc(Nc2ccnc(Nc3cccc(OCC(=O)O)c3)n2)c1, amide bond, HBTU, DMF, 7.67 mM, 25.0 °C, 2.0 h): 9% | inhibition at 1 µM (Abl (h)): 10 to 30% | inhibition at 1 µM (cSRC (h)): 30 to 60% | inhibition at 1 µM (Fes (h)): 30 to 60% | inhibition at 1 µM (Flt3 (h)): > 80% | inhibition at 1 µM (Fms (h)): 60 to 80% | inhibition at 1 µM (Lck (h)): 30 to 60% | inhibition at 1 µM (Lyn (h)): 10 to 30% | inhibition at 1 µM (Yes (h)): 30 to 60%

N#Cc1cnc2nc1Nc1cccc(c1)C(=O)NCC(=O)NCc1cccc(c1)N2 [Compound 5, 2,4,8,15,18,26-hexaazatetracyclo[18.3.1.1˜3,7˜.1˜9,13˜]hexacosa-1(24),3,5,7(26),9,11,13(25),20,22-nonaene-6-carbonitrile, 14,17-dioxo-]
ring closure, yield of all isomers (from N#Cc1cnc(Nc2cccc(CNC(=O)CN)c2)nc1Nc1cccc(C(=O)O)c1, amide bond, HBTU, DMF, 22.5 mM, 25.0 °C, 3.0 h): 14% | inhibition at 1 µM (Flt3 (h)): 10 to 30%

O=C1CN2CCN(CC2)Cc2cccc(c2)Nc2cc(ncn2)Nc2cccc(c2)OCCCCCN1 [Compound 112]
IC50 (EGFR-kinase domain): < 1000 nM | IC50 (ErbB2 (h)): < 1000 nM | IC50 (ErbB4 (h)): < 1000 nM

COc1ccc2cc1OCCNC(=O)C(Cc1ccc(C(F)(F)F)cc1)NC(=O)CN(C)Cc1cccc(c1)Nc1cc(ncn1)N2 (centres unmarked) [Compound 114]
IC50 (EGFR-kinase domain): < 1000 nM | IC50 (ErbB2 (h)): 1000 to 10000 nM

CN(C)CCCCC1NC(=O)CN(C)Cc2cccc(c2)Nc2cc(ncn2)Nc2cccc(c2)CNC1=O (centres unmarked) [Compound 148]
IC50 (EGFR-kinase domain): < 1000 nM | IC50 (ErbB2 (h)): 1000 to 10000 nM | IC50 (ErbB4 (h)): 1000 to 10000 nM

CC(C)CC1NC(=O)CN(C)Cc2cccc(c2)Nc2cc(ncn2)Nc2cccc(c2)CNC1=O (centres unmarked) [Compound 149]
IC50 (EGFR-kinase domain): < 1000 nM | IC50 (ErbB2 (h)): 1000 to 10000 nM | IC50 (ErbB4 (h)): < 1000 nM

C#CCC1NC(=O)CN(C)Cc2cccc(c2)Nc2cc(ncn2)Nc2cccc(c2)CNC1=O (centres unmarked) [Compound 150]
IC50 (EGFR-kinase domain): < 1000 nM | IC50 (ErbB2 (h)): < 1000 nM | IC50 (ErbB4 (h)): < 1000 nM

CN1CC(=O)N2CCC2C(=O)NCc2cccc(c2)Nc2cc(ncn2)Nc2cccc(c2)C1 (centres unmarked) [Compound 151]
IC50 (EGFR-kinase domain): < 1000 nM | IC50 (ErbB2 (h)): < 1000 nM | IC50 (ErbB4 (h)): < 1000 nM

CN1CC(=O)NC(CCc2ccccc2)C(=O)NCc2cccc(c2)Nc2cc(ncn2)Nc2cccc(c2)C1 (centres unmarked) [Compound 152]
IC50 (EGFR-kinase domain): < 1000 nM | IC50 (ErbB2 (h)): < 1000 nM | IC50 (ErbB4 (h)): < 1000 nM

CCN1CCNC(=O)C(CCCCN(C)C)NC(=O)CN(C)Cc2cccc(c2)Nc2cc(ncn2)Nc2cccc(c2)C1 (centres unmarked) [Compound 153]
IC50 (ErbB2 (h)): 1000 to 10000 nM

CCN1CCNC(=O)C(CC(C)C)NC(=O)CN(C)Cc2cccc(c2)Nc2cc(ncn2)Nc2cccc(c2)C1 (centres unmarked) [Compound 154]
IC50 (EGFR-kinase domain): 1000 to 10000 nM | IC50 (ErbB2 (h)): 1000 to 10000 nM

CCN1CCNC(=O)C(Cc2ccc(C(F)(F)F)cc2)NC(=O)CN(C)Cc2cccc(c2)Nc2cc(ncn2)Nc2cccc(c2)C1 (centres unmarked) [Compound 156]
IC50 (EGFR-kinase domain): < 1000 nM | IC50 (ErbB2 (h)): 1000 to 10000 nM | IC50 (ErbB4 (h)): < 1000 nM

CN(C)CCCCC1NC(=O)CN(C)Cc2cccc(c2)Nc2cc(ncn2)Nc2cccc(c2)CN2CCN(CC2)C1=O (centres unmarked) [Compound 159]
IC50 (EGFR-kinase domain): < 1000 nM | IC50 (ErbB2 (h)): 1000 to 10000 nM

O=C1COc2cccc(c2)Nc2cc(ncn2)Nc2cccc(c2)CCN1 [Compound 160]
IC50 (EGFR-kinase domain): < 1000 nM | IC50 (ErbB2 (h)): 1000 to 10000 nM | IC50 (ErbB4 (h)): 1000 to 10000 nM

CCN1CCNC(=O)COc2cccc(c2)Nc2cc(ncn2)Nc2cccc(c2)C1 [Compound 161]
IC50 (EGFR-kinase domain): < 1000 nM | IC50 (ErbB2 (h)): 1000 to 10000 nM | IC50 (ErbB4 (h)): < 1000 nM

COc1ccc2cc1OCCNC(=O)COc1cccc(c1)Nc1cc(ncn1)N2 [Compound 162]
IC50 (EGFR-kinase domain): < 1000 nM | IC50 (ErbB2 (h)): 1000 to 10000 nM | IC50 (ErbB4 (h)): 1000 to 10000 nM

O=C1COc2cccc(c2)Nc2cc(ncn2)Nc2cccc(c2)OCCCCCN1 [Compound 163]
IC50 (ErbB2 (h)): < 1000 nM

O=C1CN2CCN(CC2)Cc2cccc(c2)Nc2cc(ncn2)Nc2cccc(c2)CCN1 [Compound 164]
IC50 (ErbB2 (h)): 1000 to 10000 nM | IC50 (ErbB4 (h)): < 1000 nM

COc1ccc2cc1OCCCNC(=O)CCN1CCC(CC1)N(C)Cc1ccc(Cl)c(c1)Nc1cc(ncn1)N2 [Compound 216]
IC50 (ErbB4 (h)): 1000 to 10000 nM
